Source: patent US9617289B2, “RSV antiviral compounds” (JANSSEN R&D IRELAND, priority 2012, dated 2017)
Read-outs that look alike come from different tables or passages of the source.

Tested on: rgRSV224 virus
Experiment: Antiviral activity: inhibition of rgRSV224 (GFP-expressing RSV) replication in HeLa cells
Type: cell-based, respiratory syncytial virus
Conditions: human respiratory syncytial virus, HeLa, 72 h
Experimental: Black 96-well clear-bottom microtiter plates (Corning, Amsterdam, The Netherlands) were filled in duplicate using a customized robot system with serial 4-fold dilutions of compound in a final volume of 50 μl culture medium [RPMI medium without phenol red, 10% FBS, 0.04% gentamycin (50 mg/ml) and 0.5% DMSO]. Then, 100 μl of a HeLa cell suspension (5×10^4 cells/ml) in culture medium was added to each well followed by the addition of 50 μl rgRSV224 (MOI=0.02) virus in culture medium using a multidrop dispenser (Thermo Scientific, Erembodegem, Belgium). rgRSV224 virus is an engineered virus that includes an additional GFP gene (Hallak et al, 2000) and was in-licensed from the NIH (Bethesda, Md., USA). Medium, virus- and mock-infected controls were included in each test. Cells were incubated at 37° C. in a 5% CO2 atmosphere. Three days post-virus exposure, viral replication was quantified by measuring GFP expression in the cells by a MSM laser microscope (Tibotec, Beerse, Belgium). The EC50 was defined as the 50% inhibitory concentration for GFP expression. In parallel, compounds were incubated for three days in a set of white 96-well microtitier plates (Corning) and the cytotoxicity of compounds in HeLa cells was determined by measuring the ATP content of the cells using the ATPlite kit (PerkinElmer, Zaventem, Belgium) according to the manufacturer's instructions. The CC50 was defined as the 50% concentration for cytotoxicity. SI is calculated as CC50/EC50.

[1] = read-out: RSV-wt_pEC50, rgRSV224 (MOI=0.02) in HeLa cells, GFP expression three days post-virus exposure
[2] = read-out: pEC50, rgRSV224 (MOI=0.02) in HeLa cells, GFP expression three days post-virus exposure (converted)

| SMILES | EC50 [1] [pM] | EC50 [2] [pM] |
| --- | --- | --- |
| N#CCCCn1c(CN2C(=O)C3(CN(S(=O)(=O)c4cccs4)C3)c3ccccc32)nc2cc(Cl)ccc21 [Compound 91] | 234 |  |
| CS(=O)(=O)CCCn1c(CN2C(=O)C3(CCCC3)c3ccncc32)cc2cc(Cl)ccc21 [Compound 54, 1′-({5-chloro-1-[3-(methylsulfonyl)propyl]-1H-indol-2-yl}methyl)spiro [cyclopentane-1,3′-pyrrolo[2,3-c]pyridin]-2′(1′H)-one] |  | 1580 |
| CC(C)(O)C(=O)N1CCC2(CC1)C(=O)N(Cc1nc3cc(Cl)ccc3n1CCCC#N)c1cnccc12 [Compound 107, 4-(5-Chloro-2-{[1-(2-hydroxy-2-methylpropanoyl)-2′-oxo-spiro[piperidine-4,3′-pyrrolo[2,3-c]pyridin]-1′(2′H)-yl]-methyl}-1H-benzimidazol-1-yl)butanenitrile] | 79.4 |  |
| CS(=O)(=O)CCCn1c(CN2C(=O)C3(CCOCC3)c3ccccc32)nc2cc(Cl)ccc21 [Compound 40, 1-((5-chloro-1-(3-(methylsulfonyl)propyl)-1H-benzo[d]-imidazol-2-yl)methyl)-2′,3′,5′,6′-tetrahydrospiro[indoline-3,4′-pyran]-2-one] |  | 2510 |
| CC(=O)NS(=O)(=O)N1CC2(C1)C(=O)N(Cc1nc3cc(Cl)ccc3n1CCCC#N)c1ccccc12 [Compound 170, N-[(1′-{[5-Chloro-1-(3-cyanopropyl)-1H-benzimidazol-2-yl]methyl}-2′-oxo-1′,2′-dihydro-1H-spiro[azetidine-3,3′-indol]-1-yl)sulfonyl]acetamide] | 269 |  |
| CC(C)(C)OC(=O)N1CCC2(CC1)C(=O)N(Cc1nc3ncccc3n1CCCC(F)(F)F)c1cnccc12 [Compound 66, tert-butyl-2′-oxo-1′-((1-(4,4,4-trifluorobutyl)-1H-imidazo-[4,5-b]pyridine-2-yl)methyl)-1′,2′-dihydrospiro[piperidine-4,3′-pyrrolo[2,3-c]pyridine]-1-carboxylate] |  | 3160 |
| CC(O)(C(=O)N1CCC2(CC1)C(=O)N(Cc1nc3cc(Cl)ccc3n1CCCC#N)c1cnccc12)C(F)(F)F (stereo not drawn) [Compound 116, 4-(5-Chloro-2-{[2′-oxo-1-(3,3,3-trifluoro-2-hydroxy-2-methylpropanoyl)spiro[piperidine-4,3′-pyrrolo[2,3-c]pyridin]-1′(2′H)-yl]methyl}-1H-benzimidazol-1-yl)butanenitrile] | 70.8 |  |
| CC(C)(C)OC(=O)N1CCC2(CC1)C(=O)N(Cc1cc3ccccc3n1CCCC(F)(F)F)c1cnccc12 [Compound 113, tert-Butyl 2′-oxo-1′-{[1-(4,4,4-trifluorobutyl)-1H-indol-2-yl]methyl}-1′,2′-dihydro-1H-spiro[piperidine-4,3′-pyrrolo[2,3-c]pyridine]-1-carboxylate] | 66100 |  |
| CC(C)(O)CN1CC2(C1)C(=O)N(Cc1nc3cc(Cl)ccc3n1CCCS(C)(=O)=O)c1ccccc12 [Compound 8, 1′-({5-chloro-1-[3-(methylsulfonyl)propyl]-1H-benzimidazol-2-yl}methyl)-1-(2-hydroxy-2-methylpropyl)spiro[azetidine-3,3′-indol]-2′(1′H)-one] |  | 794 |
| N#CCCCn1c(CN2C(=O)C3(CC(O)C3)c3ccccc32)nc2cc(Cl)ccc21 (stereo not drawn) [Compound 109, 4-{5-Chloro-2-[(3-hydroxy-2′-oxospiro[cyclobutane-1,3′-indol]-1′(2′H)-yl)methyl]-1H-benzimidazol-1-yl}butanenitrile] | 191 |  |
| N#CCCCn1c(CN2c3ccccc3[C@]3(C[C@@H](NC(=O)OC4CC4)C3)C2=O)nc2cc(Cl)ccc21 [Compound 126, cyclopropyl ((1r,3r)-1-((5-chloro-1-(3-cyanopropyl)-1H-benzo[d]imidazol-2-yl)methyl)-2′-oxospiro[cyclobutane-1,3′-indolin]-3-yl)carbamate] | 257 |  |
| CS(=O)(=O)CCCn1c(CN2C(=O)C3(CCOCC3)c3ccncc32)nc2cc(Cl)ccc21 [Compound 38, 1′-((5-chloro-1-(3-(methylsulfonyl)propyl)-1H-benzo[d]-imidazol-2-yl)methyl)-2,3,5,6-tetrahydrospiro[pyran-4,3′-pyrrolo[2,3-c]pyridin]-2′(1′H)-one] |  | 158 |
